{
  "source": "patent US20090270309A1",
  "about": "“USE OF LACTOFERRIN FRAGMENTS AND HYDROLYSATES” (priority 2005, published 2009)",
  "tested_on": "primary rat osteoblasts",
  "experiment": "Proliferation of primary rat osteoblasts (cell counts and [3H]-thymidine incorporation)",
  "assay_type": "cell-based",
  "conditions": "for Mitogenic / proliferative effect on primary osteoblasts (in words): significantly different from control by ANOVA, post hoc Dunnett's test",
  "procedure": "Osteoblasts were isolated by collagenase digestion from 20-day fetal rat ? viously described by Lowe, et al. (1991). Calvariae were dissected aseptically, and the frontal and parietal bones were stripped of their periosteum. Only the central portions of the bones, free from suture tissue, were collected. The calvariae were treated twice with phosphate buffered saline (PBS) containing 3 mM EDTA (pH 7.4) for 15 minutes at 37° C. in a shaking water bath. After washing once in PBS, the calvariae were treated twice with 3 ml of 1 mg/ml collagenase for 7 minutes at 37° C. After discarding the supernatants from digestions I and II, the calvariae were treated further two times with 3 ml of 2 mg/ml collagenase (30 mins, 37° C.). The supernatants of digestions III and IV were pooled, centrifuged, and the cells washed in Dulbecco's modified Eagle's medium (DME) with 10% fetal calf serum (FCS), suspended in DME/10% FCS, and placed in […] flasks. The cells were incubated under 5% CO2 and 95% air at 37° C. Confluence was reached by 5-6 days, at which time the cells were subcultured. After trypsinization using trypsin-EDTA (0.05%/0.53 mM), the cells were rinsed in minimum essential medium (MEM) with 5% FCS and resuspended in a fresh medium, then seeded at 5×10^4 cells/ml in 24-well plates (0.5 ml cell suspension per well, i.e., 1.4×10^4 cells/cm^2).\nProliferation studies (cell counts and thymidine incorporation) were performed both in actively growing and non-actively growing cell populations. To produce actively growing cells, sub-confluent populations (24 h after subculturing) were placed in fresh MEM containing 1% FCS and a lactoferrin fragment sample (see Table 1 below). To produce non-actively growing cells, sub-confluent populations were placed in serum-free medium with 0.1% bovine serum albumin plus a lactoferrin fragment sample. Cell numbers were analyzed at 6, 24, and 48 hours after the addition of lactoferrin fragment samples. The cell numbers were determined after detaching cells from the wells by exposure to trypsin/EDTA (0.05%/0.53 mM) for approximately 5 minutes at 37° C. Counting was performed in a haemocytometer chamber. [3H]-thymidine incorporation into actively growing and non-actively growing cells was assessed by pulsing the cells with [3H]-thymidine (1 μCi/well) two hours before the end of the incubation. The experiment was terminated at 6, 24, or 48 hours by washing the cells in MEM containing cold thymidine followed by the addition of 10% trichloroacetic acid. The precipitate was washed twice with ethanol:ether (3:1), and the wells desiccated at room temperature. The ? redissolved in 2 M KOH at 55° C. for 30 min, neutralized with 1 M HCl, and an aliquot counted for radioactivity. For both cell counts and thymidine incorporation, each experiment at each time point was performed at least 4 different times using experimental groups consisting of at least 6 wells.\nThe osteogenic response seen above was compared with that of insulin-like growth factor 1 (IGF-1), a well-recognized osteoblast mitogen. The magnitudes of response of the lactoferrin fragments were similar to IGF-1 in the same osteoblast cell culture system.",
  "key": {"[1]": {"conditions": "primary rat osteoblasts, Table 1"}},
  "data": [
    {"sequence": "FKCRRWQWRMKKLGA [SEQ ID NO. 17]", "values": [
      {"measurement": "Mitogenic / proliferative effect on primary osteoblasts (in words)", "setting": "figure legends", "result": "mitogenic to primary osteoblasts"},
      {"measurement": "Dose (ug/mL): minimum dose range that stimulates osteoblast proliferation", "setting": "[1]", "result": "0.1 to 10", "unit": "µg/mL"}
    ]},
    {"sequence": "FKCRRWQWRMKKLGAPSITCVRRAFA [SEQ ID NO. 14]", "values": [
      {"measurement": "Concentration at which osteoblast proliferation is significantly different from control", "setting": "figure legends, post hoc Dunnett's test P<0.05 or P<0.01", "result": 0.01, "unit": "µg/mL"},
      {"measurement": "Mitogenic / proliferative effect on primary osteoblasts (in words)", "setting": "figure legends", "result": "mitogenic to primary osteoblasts"},
      {"measurement": "Dose (ug/mL): minimum dose range that stimulates osteoblast proliferation", "setting": "[1]", "result": "0.01 to 1.0", "unit": "µg/mL"}
    ]},
    {"sequence": "RRWQWRMKKLG [SEQ ID NO. 16]", "values": [
      {"measurement": "Dose (ug/mL): minimum dose range that stimulates osteoblast proliferation", "setting": "[1]", "result": "0.1 to 10", "unit": "µg/mL"}
    ]},
    {"sequence": "WKLLSKAQEKFGKNKS (listed as Bos taurus) [SEQ ID NO. 33]", "values": [
      {"measurement": "Mitogenic / proliferative effect on primary osteoblasts (in words)", "setting": "figure legends", "result": "mitogenic to primary osteoblasts"},
      {"measurement": "Dose (ug/mL): minimum dose range that stimulates osteoblast proliferation", "setting": "[1]", "result": 100, "unit": "µg/mL"},
      {"measurement": "Dose (M): minimum dose range that stimulates osteoblast proliferation", "setting": "primary rat osteoblasts, Table 1, printed as orders of magnitude, e.g. 10^−7/8", "result": "10^−5 M"}
    ]}
  ]
}
